Source: patent EP3822637A1, “METHOD FOR DETERMINING PARP INHIBITOR RESPONSIVENESS AND IMPROVING PARP INHIBITOR THERAPY” (Universität Zürich, priority 2019, dated 2021)
Entries after “also recorded” stand apart in the source; their conditions may differ.

How the values were obtained:
TRIP12 [1] = target: T1, TRIP12 (Homo sapiens, UniProt Q14669); assay: In vitro ubiquitin ligase activity assay (TRIP12 auto-ubiquitylation, with and without PAR chains); assay type: biochemical; conditions: absence and presence of PAR chains; Fig. 16a
T1 construct: The full-length TRIP12 (TRIP12-203, transcript ENST 00000389044.8) was cloned into the pAc-GFP1-C1 (Clontech) vector; expressed in transfected cells
T1 sequence (Q14669 with tags, fused parts or gaps): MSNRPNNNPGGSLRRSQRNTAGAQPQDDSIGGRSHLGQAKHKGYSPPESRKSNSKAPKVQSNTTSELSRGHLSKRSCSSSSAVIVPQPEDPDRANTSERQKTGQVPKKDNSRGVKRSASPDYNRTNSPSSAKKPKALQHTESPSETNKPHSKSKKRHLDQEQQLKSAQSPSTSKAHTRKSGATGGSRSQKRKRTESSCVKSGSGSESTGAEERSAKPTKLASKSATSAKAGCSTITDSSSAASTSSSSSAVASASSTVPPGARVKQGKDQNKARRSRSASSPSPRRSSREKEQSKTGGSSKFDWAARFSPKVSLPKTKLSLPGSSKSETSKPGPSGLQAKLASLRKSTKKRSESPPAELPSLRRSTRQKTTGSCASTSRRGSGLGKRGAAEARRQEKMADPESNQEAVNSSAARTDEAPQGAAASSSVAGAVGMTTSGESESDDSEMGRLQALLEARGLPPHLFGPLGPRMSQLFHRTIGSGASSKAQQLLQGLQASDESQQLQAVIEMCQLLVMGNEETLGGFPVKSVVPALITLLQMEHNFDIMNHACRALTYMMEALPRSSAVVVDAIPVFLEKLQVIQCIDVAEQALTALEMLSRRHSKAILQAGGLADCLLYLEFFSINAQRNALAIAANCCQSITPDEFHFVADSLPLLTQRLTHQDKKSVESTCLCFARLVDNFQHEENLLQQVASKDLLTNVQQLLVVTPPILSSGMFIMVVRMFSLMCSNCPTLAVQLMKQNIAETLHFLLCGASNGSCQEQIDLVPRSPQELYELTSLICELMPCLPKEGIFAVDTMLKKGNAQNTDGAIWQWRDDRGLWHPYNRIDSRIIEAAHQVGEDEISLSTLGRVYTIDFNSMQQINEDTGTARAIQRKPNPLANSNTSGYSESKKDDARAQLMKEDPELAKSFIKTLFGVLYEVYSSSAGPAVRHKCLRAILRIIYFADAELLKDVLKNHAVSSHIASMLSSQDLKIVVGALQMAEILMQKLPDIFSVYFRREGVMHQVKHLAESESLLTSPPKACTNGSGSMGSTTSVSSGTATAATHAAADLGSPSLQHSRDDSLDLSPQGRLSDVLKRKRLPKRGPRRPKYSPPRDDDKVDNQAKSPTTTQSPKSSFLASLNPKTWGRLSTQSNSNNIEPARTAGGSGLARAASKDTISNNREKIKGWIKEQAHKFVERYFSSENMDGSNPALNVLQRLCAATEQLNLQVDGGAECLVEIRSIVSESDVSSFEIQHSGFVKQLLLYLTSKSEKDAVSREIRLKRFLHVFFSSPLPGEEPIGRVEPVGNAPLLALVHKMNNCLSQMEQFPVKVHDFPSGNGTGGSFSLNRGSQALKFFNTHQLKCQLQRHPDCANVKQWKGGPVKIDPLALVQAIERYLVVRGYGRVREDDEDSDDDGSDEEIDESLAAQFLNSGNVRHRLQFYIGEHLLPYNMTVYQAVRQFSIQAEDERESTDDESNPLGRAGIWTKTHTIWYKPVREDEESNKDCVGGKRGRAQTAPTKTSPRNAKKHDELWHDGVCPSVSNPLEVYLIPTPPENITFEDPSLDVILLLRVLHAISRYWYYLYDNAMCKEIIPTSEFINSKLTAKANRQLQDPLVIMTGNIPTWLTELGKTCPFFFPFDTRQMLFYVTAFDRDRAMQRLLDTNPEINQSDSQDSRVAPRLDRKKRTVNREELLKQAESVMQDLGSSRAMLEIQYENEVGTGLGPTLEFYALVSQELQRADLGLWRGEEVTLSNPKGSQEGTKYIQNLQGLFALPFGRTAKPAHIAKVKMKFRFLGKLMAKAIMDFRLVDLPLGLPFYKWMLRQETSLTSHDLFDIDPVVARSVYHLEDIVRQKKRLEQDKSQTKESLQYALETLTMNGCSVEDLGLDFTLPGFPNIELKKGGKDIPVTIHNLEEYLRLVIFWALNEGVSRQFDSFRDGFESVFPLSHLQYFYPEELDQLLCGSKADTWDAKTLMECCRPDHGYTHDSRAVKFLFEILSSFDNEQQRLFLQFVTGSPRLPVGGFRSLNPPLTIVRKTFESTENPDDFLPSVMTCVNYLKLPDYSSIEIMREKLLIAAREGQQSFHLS
Protocol: HEK293T cells were transfected with plasmids encoding FLAG-TRIP12 WT or the point mutants R869A or C2034A. Cells were lysed in TNE buffer (50 mM Tris-HCI pH 8.0, 150 mM NaCl, 0,1% Igepal CA630, 1 mM EDTA) supplemented with 2 mM MgCl2, cOmplete inhibitor cocktail (Roche), phosphoSTOP (Roche) and 25 U/ml benzonase. One milligram of protein lysates was immunoprecipitated using protein G- sepharose (GE Heltcare) coupled to 1 µl of anti-FLAG antibody for 3 hours at 4°C. After four washes with IP buffer the beads were first equilibrated in TE buffer (50 mM Tris-HCI pH 8.0, 150 mM NaCl) supplemented with cOmplete inhibitor cocktail (Roche), 1 mM PMSF, and then re-suspended in 5 volumes of TE buffer with 0.3 mg/ml FLAG peptide (3x FLAG peptide, Sigma) for 1 hour at 4°C at low rpm. Samples were then centrifuged at 100 x g for two minutes and the supernatant containing the eluted protein was stored at -80°C.
Auto-PARylated PARP1 was bound to histidine beads (ProBond) for 45 minutes at 4°C. The beads were then equilibrated in reaction buffer (25 mM Tris-HCI pH 7.4, 100 mM NaCl) and equally distributed in reaction tubes. […]

TRIP12 [2] = target: T1, TRIP12; assay: In vivo ubiquitin ligase activity assay in cells (GFP-TRIP12 and HA-ubiquitin over-expressed, immunoprecipitation); assay type: cell-based; conditions: GFP-TRIP12 immunoprecipitated and probed for HA-ubiquitin; Fig. 16b
Protocol: HEK293T or U-2 OS cells transfected with the indicated plasmids and siRNAs were washed twice with cold PBS and directly lysed on ice with RIPA buffer (50 mM Tris- HCI pH 8.0, 150 mM NaCl, 1% Igepal CA630, 0.1% SDS, 0.1% Na-deoxycholic acid), supplemented with 2 mM MgCl2, cOmplete inhibitor cocktail (Roche), phosphoSTOP (Roche), 25 U/ml benzonase, 1 mM phenylmethylsulfonylfluoride (PMSF), and 10 mM N-ethylmaleimide (NEM). Lysates were incubated for 5 minutes at room temperature and then centrifuged at 15'000 x g for 15 minutes. […] Beads were collected by centrifugation, washed four times with RIPA buffer and eluted by boiling in 10x SDS-PAGE sample buffer. Samples were subjected to SDS-PAGE for immunoblotting.

cancer cells = assay: Clonogenic survival assay, Heclin combined with PARPi; assay type: cell-based; conditions: Heclin combined with PARP inhibitor Olaparib; Fig. 16d
Protocol: Cells transfected with the indicated siRNAs were seeded at single cell density and exposed to PARPi at the indicated final concentration. All conditions were performed in triplicates. Cells were then incubated for 10 days and the number of colonies with more than 50 cells was counted after staining with crystal violet (0.5% crystal violet in 20% ethanol). GraphPad Prism was used to display clonogenic survival data.

Smurf2 = Smurf2 (Homo sapiens, UniProt Q9HAU4); conditions: cited from earlier work
Chain of Smurf2 (Q9HAU4 whole entry, species assumed): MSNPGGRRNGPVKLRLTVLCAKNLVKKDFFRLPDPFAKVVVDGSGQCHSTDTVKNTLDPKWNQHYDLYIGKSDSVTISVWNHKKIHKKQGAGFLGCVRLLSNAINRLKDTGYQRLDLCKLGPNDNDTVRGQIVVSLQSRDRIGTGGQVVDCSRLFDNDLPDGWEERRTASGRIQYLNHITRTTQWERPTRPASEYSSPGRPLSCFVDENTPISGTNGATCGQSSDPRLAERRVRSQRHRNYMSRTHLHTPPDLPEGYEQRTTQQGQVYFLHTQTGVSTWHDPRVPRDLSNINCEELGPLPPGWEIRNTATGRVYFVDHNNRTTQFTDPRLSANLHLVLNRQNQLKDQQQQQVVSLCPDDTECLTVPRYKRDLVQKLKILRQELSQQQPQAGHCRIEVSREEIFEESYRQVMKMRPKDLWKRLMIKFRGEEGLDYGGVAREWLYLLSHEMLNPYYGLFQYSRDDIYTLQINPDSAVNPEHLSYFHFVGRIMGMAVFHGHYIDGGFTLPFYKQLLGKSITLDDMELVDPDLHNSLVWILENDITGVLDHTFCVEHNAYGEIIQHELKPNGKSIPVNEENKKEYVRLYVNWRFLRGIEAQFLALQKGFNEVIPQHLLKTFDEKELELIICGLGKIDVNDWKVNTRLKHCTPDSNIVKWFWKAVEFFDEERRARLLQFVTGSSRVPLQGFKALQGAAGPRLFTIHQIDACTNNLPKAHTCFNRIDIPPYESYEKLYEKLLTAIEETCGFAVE

Nedd4 = target: T2, Nedd4 (Homo sapiens, UniProt P46934); conditions: cited from earlier work
T2 sequence (P46934 1-1319): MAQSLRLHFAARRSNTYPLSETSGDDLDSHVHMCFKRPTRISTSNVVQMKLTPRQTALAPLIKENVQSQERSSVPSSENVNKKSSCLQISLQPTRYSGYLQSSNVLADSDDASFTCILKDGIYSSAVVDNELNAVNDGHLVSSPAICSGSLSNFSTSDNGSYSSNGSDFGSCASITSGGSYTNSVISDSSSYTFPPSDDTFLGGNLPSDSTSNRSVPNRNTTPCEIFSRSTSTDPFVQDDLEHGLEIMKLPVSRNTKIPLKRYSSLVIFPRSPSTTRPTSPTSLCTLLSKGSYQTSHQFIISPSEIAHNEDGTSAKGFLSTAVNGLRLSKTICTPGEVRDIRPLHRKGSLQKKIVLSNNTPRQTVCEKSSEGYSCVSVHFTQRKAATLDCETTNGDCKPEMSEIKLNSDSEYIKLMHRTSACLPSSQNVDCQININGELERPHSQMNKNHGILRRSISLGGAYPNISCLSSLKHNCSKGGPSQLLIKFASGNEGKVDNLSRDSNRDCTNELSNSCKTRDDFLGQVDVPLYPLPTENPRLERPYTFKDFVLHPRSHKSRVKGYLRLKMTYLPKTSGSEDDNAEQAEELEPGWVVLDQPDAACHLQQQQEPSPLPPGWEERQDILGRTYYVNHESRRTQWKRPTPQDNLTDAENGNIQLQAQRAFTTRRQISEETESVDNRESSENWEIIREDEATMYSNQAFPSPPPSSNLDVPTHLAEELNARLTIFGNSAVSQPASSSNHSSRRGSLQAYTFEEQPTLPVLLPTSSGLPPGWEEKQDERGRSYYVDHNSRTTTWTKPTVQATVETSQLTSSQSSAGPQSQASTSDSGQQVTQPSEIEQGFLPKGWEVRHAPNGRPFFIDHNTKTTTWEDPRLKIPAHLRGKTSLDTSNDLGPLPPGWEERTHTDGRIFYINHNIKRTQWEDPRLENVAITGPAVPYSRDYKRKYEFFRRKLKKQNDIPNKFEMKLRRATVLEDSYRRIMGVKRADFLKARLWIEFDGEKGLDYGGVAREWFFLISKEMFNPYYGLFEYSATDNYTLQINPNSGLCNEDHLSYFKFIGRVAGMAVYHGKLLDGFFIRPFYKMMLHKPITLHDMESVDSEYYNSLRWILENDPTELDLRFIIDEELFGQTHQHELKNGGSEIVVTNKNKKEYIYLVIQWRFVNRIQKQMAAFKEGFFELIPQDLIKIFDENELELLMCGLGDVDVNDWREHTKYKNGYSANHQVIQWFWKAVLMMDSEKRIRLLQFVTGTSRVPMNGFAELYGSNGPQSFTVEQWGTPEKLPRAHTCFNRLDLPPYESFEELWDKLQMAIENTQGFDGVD

WWP2 = WWP2 (Homo sapiens, UniProt O00308); conditions: cited from earlier work
Chain of WWP2 (O00308 whole entry, species assumed): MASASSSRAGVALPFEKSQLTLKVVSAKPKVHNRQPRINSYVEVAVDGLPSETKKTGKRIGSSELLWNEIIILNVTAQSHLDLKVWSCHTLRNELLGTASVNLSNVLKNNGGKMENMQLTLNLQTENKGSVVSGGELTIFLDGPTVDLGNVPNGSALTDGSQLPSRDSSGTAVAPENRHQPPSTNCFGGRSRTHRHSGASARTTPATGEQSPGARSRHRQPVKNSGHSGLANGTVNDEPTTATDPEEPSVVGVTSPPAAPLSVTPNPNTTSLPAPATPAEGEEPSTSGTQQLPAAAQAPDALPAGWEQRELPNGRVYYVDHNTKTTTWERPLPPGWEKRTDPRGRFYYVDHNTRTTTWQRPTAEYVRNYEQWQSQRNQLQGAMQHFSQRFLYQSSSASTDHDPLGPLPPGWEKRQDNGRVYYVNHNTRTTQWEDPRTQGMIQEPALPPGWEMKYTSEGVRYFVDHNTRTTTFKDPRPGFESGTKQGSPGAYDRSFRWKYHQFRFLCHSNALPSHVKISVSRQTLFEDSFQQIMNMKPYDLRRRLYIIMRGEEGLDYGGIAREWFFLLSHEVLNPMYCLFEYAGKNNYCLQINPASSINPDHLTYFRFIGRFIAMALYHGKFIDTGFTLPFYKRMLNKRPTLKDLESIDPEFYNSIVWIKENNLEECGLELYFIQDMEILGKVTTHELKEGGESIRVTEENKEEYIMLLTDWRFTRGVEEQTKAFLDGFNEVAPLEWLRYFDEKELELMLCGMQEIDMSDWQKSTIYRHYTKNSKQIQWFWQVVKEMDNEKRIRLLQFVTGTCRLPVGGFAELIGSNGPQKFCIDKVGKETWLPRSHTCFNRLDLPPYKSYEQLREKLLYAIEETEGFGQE

PARP1 = PARP1 protein levels in treated cells (Western blot / high-content microscopy); conditions: U-2 OS cancer cells; Fig. 16c
Protocol: Images were analyzed with the inbuilt Olympus ScanR Image Analysis Software Version 3.0.1, a dynamic background correction was applied, and nuclei segmentation was performed using an integrated intensity-based object detection module based on the DAPI signal. All downstream analyses were focused on properly detected nuclei containing a 2C-4C DNA content as measured by total and mean DAPI intensities. Fluorescence intensities were quantified and are depicted as arbitrary units. Color-coded scatter plots of asynchronous cell populations were generated with Spotfire data visualization software (TIBCO) and GraphPad Prism 8.0 was used for depicting data as violin plots. Within one experiment, similar cell numbers were compared for the different conditions. […] Representative scatter plots and quantifications of independent experiments, typically containing several thousand cells each, are shown. […]

[3] = test system: BRCA-proficient cancer cells; assay: Clonogenic survival (colony formation) assay with PARPi after siRNA down-regulation of TRIP12; assay type: cell-based, Human; conditions: siRNA against TRIP12; increasing doses of PARPi; 10 days; rescued by PARP1 co-depletion; Fig. 6a-d, 12a-c
Protocol: Human U-2 OS cells (ATCC), RPE-1 (ATCC), HEK293T (ATCC), MCF-7 (kindly provided by Ross Chapman), MDA-MB-436 (kindly provided by Michael Hottiger), U-2 OS PARP1 KO cells (kindly provided by Keith Caldecott) and HeLa Kyoto PARP1-LAP cells stably expressing EGFP-tagged PARP1 from its natural promoter (kindly provided by Stoyno S. Stoynov) were grown under standard sterile cell culture conditions (37°C, humidified atmosphere, 5% CO2) in Dulbecco's modified Eagle's medium (DMEM, Thermo Fisher Scientific) containing 10% fetal bovine serum (GIBCO) and 1% of penicillin-streptomycin antibiotics. HCC1143 cells (kindly provided by Mohamed Bentires-Alj) were grown in RPMI-1640 medium (Thermo Fisher Scientific) containing 10% fetal bovine serum (GIBCO) and 1% penicillin- streptomycin antibiotics. SUM149PT (generated by the Ethier laboratory; available at http://www.bioivt.com/ and kindly provided by Alessandro Sartori) were grown in Ham's F-12 medium (Thermo Fisher Scientific) containing 10% fetal bovine serum and 1% of penicillin-streptomycin antibiotics. All cultured cells were routinely tested for mycoplasma contamination and assessed by quantitative image-based cytometry (QIBC) for proper proliferation and absence of abnormal stress signals. […] Transfections with siRNAs were performed for 72h, unless stated otherwise, with Ambion Silencer Select siRNA using Lipofectamine RNAi/MAX (Thermo Fisher Scientific). For individual transfections the siRNAs were used at a final concentration of 25nM. When multiple siRNAs were combined, the final concentration was kept constant in all samples of an experiment. The following Ambion Silencer Select siRNAs were used: TRIP12 (s17808, s17809, s17810), PARP1 (s1098), DTX1 (s4355, s4356), DTX2 (s41519, s223231), DTX4 (s23319, s23321), HUWE1 (s19596, s19597), RNF146 (s37821, s37822). […] Cells were then incubated for 10 days and the number of colonies with more than 50 cells was counted after staining with crystal violet (0.5% crystal violet in 20% ethanol). […]

## CCc1ccc(C=CC(=O)Nc2ccc(C(C)=O)cc2)o1 [Heclin, N-(4-Acetylphenyl)-3-(5-ethyl-2-furanyl)-2-propenamide]
TRIP12 [1]
  TRIP12 activity in vitro: inhibited
TRIP12 [2]
  TRIP12 activity in vivo: inhibited
Cancer cells
  sensitization of cancer cells to PARPi in clonogenic survival assays: synergizes with the PARP inhibitor Olaparib to kill cancer cells; also recorded: sensitized cancer cells to PARPi
Smurf2
  inhibition of ubiquitin ligase Smurf2: inhibit
Nedd4
  inhibition of ubiquitin ligase Nedd4: inhibit
WWP2
  inhibition of ubiquitin ligase WWP2: inhibit
PARP1
  PARP1 levels upon Heclin treatment of cells: stabilizes PARP1 in U-2 OS cancer cells in a time- and dose-dependent manner; also recorded: elevated PARP1 levels, in a time- and dose-dependent manner

## O=C(c1cc(Cc2n[nH]c(=O)c3ccccc23)ccc1F)N1CCN(C(=O)C2CC2)CC1 [Olaparib]
[3]
  clonogenic survival upon PARPi exposure after TRIP12 down-regulation: greatly sensitized

## CNCc1ccc(-c2[nH]c3cc(F)cc4c3c2CCNC4=O)cc1 [Rucaparib]
[3]
  clonogenic survival upon PARPi exposure after TRIP12 down-regulation: Very similar results

## Cn1ncnc1[C@H]1c2n[nH]c(=O)c3cc(F)cc(c23)N[C@@H]1c1ccc(F)cc1 [Talazoparib]
[3]
  clonogenic survival upon PARPi exposure after TRIP12 down-regulation: Very similar results
